Columns and labels:
Assay type in all cases: cell-based, rat
[1] = test system: cortical cells and hippocampal cells; assay: MTT assay, in vitro screening of compounds for cell proliferation activity; conditions: 24 hrs treatment
Excerpt: The Tetrazolium MTT [3-(4, 5-dimethyl thiazol-2-yl)-2,5-diphenyl tetrazolium bromide] Assay: MTT assay was used to screen various compounds for their proliferating effect on cortical cells and hippocampal cells. The principle of MTT test is based on the ability of live cells to form insoluble purple formazan product from the breakdown of the water soluble yellow tetrazolium salt by mitochondrial enzyme succinate dehydrogenase (Mosmann, 1983). The resulting intracellular purple formazan can quantify by spectrophotometric means. The MTT Cell Proliferation Assay measures the cell proliferation rate and conversely, when metabolic events lead to apoptosis or necrosis, the reduction in cell viability.
The density of the cortical and hippocampal cells was adjusted at the density 2×10^5 cells/mL in complete DMEM medium (5% FBS). The cells (5000/well) were then plated in 96-wells plate and incubated for 24 hrs at 37° C. with 5% CO2. Following 24 hrs incubation, media was removed and 100 μL of each test compounds in DMEM media (5% FBS) were added. […] The culture plates were re-incubated for 24 hrs at 37° C. in 5% CO2. Cells treated with 0.1% DMSO in complete media (5% FBS) were used as vehicle controls. […] The absorbance was read at 495 nm on spectrophotometer. […] The percent rate of proliferation was calculated using the following formula, % rate of proliferation={(At−Ab)/(Ac−Ab)}×100

[2] = test system: cortical (CTX) cells; assay: Growth supporting effect on neuronal cultures (phase contrast microscopy); conditions: cortical cells treated for 24 h, FIG. 1
Description: (§1) For isolation of hippocampal and cortical neurons, two days old rat pups were sacrificed under sterile conditions. Brain samples were carefully isolated and hippocampal and cortical regions were dissected out and placed in ice-cold PBS supplemented with 1% penicillin-streptomycin. Tissue was chopped in small pieces with a sterile scalpel and washed three times with PBS. Subsequently tissues were digested in typsin-EDTA solution (0.05% of trypsin) for 7 minutes at 37° C. and 5% CO2 in a humidified chamber. After typsinisation, cells were washed three times in Dulbecco's Modified Eagle's Medium (DMEM) media containing 5% FBS and finally triturated using flame-polished Pasteur pipette to prepare dissociated cell suspension. The cell suspensions were then centrifuged at 1200 rpm for 4 minutes, supernatants were discarded and cell pellets were re-suspended in 1 mL complete media to find out the cell count and viability. Cells were finally cultured in DMEM (high glucose), supplemented with 10% fetal bovine serum (FBS), 1% L-Glutamine, 1% penicillin/streptomycin (10,000 U/mL and 10 mg/mL, resp.), and 1% sodium pyruvate. The culture flasks (75 cm^2) were then incubated at 37° C. with 5% CO2. Cells were examined daily for any change in morphology or contamination. Media was changed twice or thrice weekly. All cell work was done in a tissue culture hood under sterile conditions.
(§2) To evaluate the growth supporting effect of isoxylitones the hippocampal, cortical and co-cultured cells were plated in 6-well plates and treated with 25 μg/mL, 50 μg/mL, 75 μg/mL and 150 μg/mL doses of isoxylitones. Cells with no treatment were set as a control. The plates were incubated for 24 and 72 hrs in a humidified chamber at 37° C. in 5% CO2. To assess the morphology of the treated cells, images were captured and digitalized with Nikon TE-2000 inverted microscope equipped with phase-contrast optics to measure the difference of control group from treated group. The cells were observed carefully in order to check if they maintain their morphological characteristics after treatment with the compound. The doses which supported the maximum proliferation were used for proliferation assays i.e., AlamarBlue and BrdU assay.

[3] = test system: hippocampal (HP) cells; assay: as above; conditions: FIG. 1
Description: as §1, §2

[4] = hippocampal cells treated for 24 h

CC(=O)C=C1C=C(C)CC(C)(C)C1 (mixture of isomers) [isoxylitones]
activity on the cell proliferation (MTT screening) [1]: significant potent activity
effect on morphology [2]: without any significant change in morphology
proliferation (phase contrast photomicrographs) [2]: increased proliferation
effect on morphology [3, 4]: without any significant change in morphology
proliferation (phase contrast photomicrographs) [3, 4]: increased proliferation
proliferation of treated hippocampal cells compared to cortical cells ([3]; treated for 24 h): higher proliferation as compared to cortical cells

Reference: US11065211B2, “Isoxylitones mediated neurogenesis” (priority 2018, dated 2021)
